Reference: patent publication US8877933B2, “Thermodynamically stable form of a tosylate salt” (Bayer Intellectual Property GmbH, priority 2004, dated 2014)

Assay: Thermodynamic and storage stability of the crystal forms of the compound of the formula (I)
Type: physicochemical
Settings: for thermodynamic stability of the crystal form: room temperature

Structure (SMILES)	storage stability (after processing via suspensions)	thermodynamic stability of the crystal form
CNC(=O)c1cc(Oc2ccc(NC(=O)Nc3ccc(Cl)c(C(F)(F)F)c3)cc2)ccn1.Cc1ccc(S(=O)(=O)O)cc1 [polymorph I, 4-{4-[({[4-chloro-3-(trifluoromethyl)phenyl]amino}carbonyl)-amino]phenoxy}-N-methylpyridine-2-carboxamide tosylate in the polymorph I]	storage-stable even after processing via suspensions	thermodynamically stable at room temperature
CNC(=O)c1cc(Oc2ccc(NC(=O)Nc3ccc(Cl)c(C(F)(F)F)c3)cc2)ccn1.Cc1ccc(S(=O)(=O)O)cc1 [polymorph II, 4-{4-[({[4-Chloro-3-(trifluoromethyl)phenyl]amino}carbonyl)amino]phenoxy}-N-methylpyridine-2-carboxamide tosylate in the polymorph II]		metastable
